Laboratory results published in PubChem BioAssay AID330 (DTP/NCI, 2004).
Several values for one entry are separate records, joined by “and”; a condition that tells them apart may be missing. Equal values may be shown once. Inconclusive results and toxic doses are left out. How the source made its calls: active means survival T/C of 150% or more; inactive means T/C below 125% in these data.

Test system: P388 leukemia ip, CD2F1 mice, survival T/C
Test: NCI In Vivo Anticancer Drug Screen. Data for tumor model P388 Leukemia (intraperitoneal) in CD2F1 (CDF1) mice
Details: endpoint: median survival time, higher = longer survival
How it was run: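 Mice carrying the transplanted tumor received test compound or vehicle. Survival was recorded in each group, and the value is the treated-group measurement divided by that of the vehicle-treated control group.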

[1] = dose: 25.0 mg/kg/injection, schedule: Q01DX005 (ip), vehicle: Klucel (hydroxypropylcellulose) (HPC)
[2] = dose: 50.0 mg/kg/injection, schedule: Q01DX005 (ip), vehicle: Klucel (hydroxypropylcellulose) (HPC)
[3] = dose: 12.5 mg/kg/injection, schedule: Q01DX009 (ip), vehicle: saline with Tween-80
[4] = dose: 25.0 mg/kg/injection, schedule: Q01DX009 (ip), vehicle: saline with Tween-80
[5] = dose: 25.0 mg/kg/injection, schedule: Q01DX009 (ip), vehicle: saline
[6] = dose: 50.0 mg/kg/injection, schedule: Q01DX009 (ip), vehicle: saline with Tween-80
[7] = dose: 50.0 mg/kg/injection, schedule: Q01DX009 (ip), vehicle: saline
[8] = dose: 100.0 mg/kg/injection, schedule: Q01DX009 (ip), vehicle: saline
[9] = dose: 60.0 mg/kg/injection, schedule: Q01DX005 (ip), vehicle: Klucel (hydroxypropylcellulose) (HPC)
[10] = dose: 120.0 mg/kg/injection, schedule: Q01DX005 (ip), vehicle: Klucel (hydroxypropylcellulose) (HPC)
[11] = dose: 240.0 mg/kg/injection, schedule: Q01DX005 (ip), vehicle: Klucel (hydroxypropylcellulose) (HPC)
[12] = dose: 25.0 mg/kg/injection, schedule: Q01DX009 (ip), vehicle: Klucel (hydroxypropylcellulose) (HPC)
[13] = dose: 50.0 mg/kg/injection, schedule: Q01DX009 (ip), vehicle: Klucel (hydroxypropylcellulose) (HPC)
[14] = dose: 100.0 mg/kg/injection, schedule: Q01DX009 (ip), vehicle: Klucel (hydroxypropylcellulose) (HPC)
[15] = dose: 100.0 mg/kg/injection, schedule: Q01DX009 (ip), vehicle: saline with Tween-80
[16] = dose: 200.0 mg/kg/injection, schedule: Q01DX009 (ip), vehicle: Klucel (hydroxypropylcellulose) (HPC)
[17] = dose: 100.0 mg/kg/injection, schedule: Q01DX005 (ip), vehicle: Klucel (hydroxypropylcellulose) (HPC)
[18] = dose: 200.0 mg/kg/injection, schedule: Q01DX005 (ip), vehicle: Klucel (hydroxypropylcellulose) (HPC)

Measured: T/C

CCCN(CCC)CC(=O)NC1CC(OC2CC(O)(C(C)=O)Cc3c(O)c4c(c(O)c32)C(=O)c2c(OC)cccc2C4=O)OC(C)C1O (stereo unspecified)
inactive: dose: 0.25 mg/kg/injection, schedule: Q01DX009 (ip), vehicle: water 107 % of control | dose: 0.5 mg/kg/injection, schedule: Q01DX009 (ip), vehicle: water 101 % of control | dose: 1.0 mg/kg/injection, schedule: Q01DX009 (ip), vehicle: water 107 % of control | dose: 2.0 mg/kg/injection, schedule: Q01DX009 (ip), vehicle: water 103 % of control | dose: 4.0 mg/kg/injection, schedule: Q01DX009 (ip), vehicle: water 100 % of control | dose: 8.0 mg/kg/injection, schedule: Q01DX009 (ip), vehicle: water 107 % of control

CCOC(=O)C1=C(O)C2(CC(C)=C(C)CS2=O)SC1=Nc1ccccc1 (stereo unspecified)
inactive: dose: 60.0 mg/kg/injection, schedule: Q01DX005 (ip), vehicle: saline with Tween-80 96 % of control | dose: 120.0 mg/kg/injection, schedule: Q01DX005 (ip), vehicle: saline with Tween-80 107 % of control | dose: 240.0 mg/kg/injection, schedule: Q01DX005 (ip), vehicle: saline with Tween-80 104 % of control

Cc1nc2ccccc2[n]1[Sn]([CH3])([CH3])[n]1c(C)nc2ccccc21
inactive: dose: 12.5 mg/kg/injection, schedule: Q01DX005 (ip), vehicle: Klucel (hydroxypropylcellulose) (HPC) 118 % of control | [1] 118 % of control | [2] 112 % of control and 118 % of control

COc1ccccc1/C=C(/C)[N+](=O)[O-]
inactive: dose: 10.0 mg/kg/injection, schedule: Q01DX010 (ip), vehicle: saline 109 % of control | dose: 14.0 mg/kg/injection, schedule: Q01DX010 (ip), vehicle: saline 90 % of control | dose: 22.0 mg/kg/injection, schedule: Q01DX010 (ip), vehicle: saline 100 % of control | dose: 33.0 mg/kg/injection, schedule: Q01DX010 (ip), vehicle: saline 109 % of control | dose: 50.0 mg/kg/injection, schedule: Q01DX010 (ip), vehicle: saline 100 % of control | dose: 75.0 mg/kg/injection, schedule: Q01DX010 (ip), vehicle: saline 118 % of control

CCN(CC)CCOc1ccc2c(c1)C(=O)c1cc(OCCN(CC)CC)ccc1-2
inactive: dose: 3.13 mg/kg/injection, schedule: Q01DX009 (ip), vehicle: saline with Tween-80 109 % of control | dose: 6.25 mg/kg/injection, schedule: Q01DX009 (ip), vehicle: saline with Tween-80 109 % of control | [3] 109 % of control | [4] 100 % of control and 113 % of control | [5] 87 % of control | [6] 90 % of control | [7] 100 % of control | [8] 100 % of control

[Cl][Pt+2][Cl].[NH-]C(C(=O)O)C([NH-])C(=O)O (stereo unspecified)
inactive: dose: 6.25 mg/kg/injection, schedule: Q04DX002 (ip), vehicle: saline 96 % of control | dose: 12.5 mg/kg/injection, schedule: Q04DX002 (ip), vehicle: saline 96 % of control | dose: 25.0 mg/kg/injection, schedule: Q04DX002 (ip), vehicle: saline 100 % of control | dose: 50.0 mg/kg/injection, schedule: Q04DX002 (ip), vehicle: saline 117 % of control | dose: 100.0 mg/kg/injection, schedule: Q04DX002 (ip), vehicle: saline 101 % of control | dose: 200.0 mg/kg/injection, schedule: Q04DX002 (ip), vehicle: saline 97 % of control

c1ccc2c(SCCCCCCCCCCCCSc3c4ccccc4nc4ccccc34)c3ccccc3nc2c1
inactive: [9] 104 % of control | [10] 98 % of control | [11] 90 % of control

COC(=O)C1(CC(=O)c2c(C)[nH]c3ccccc23)NC(=S)NC(=O)C1C#N (stereo unspecified)
inactive: [9] 100 % of control | [10] 100 % of control | [11] 100 % of control

N#CC(C(=O)C(N)=O)c1nc2ccccc2s1 (stereo unspecified)
inactive: dose: 50.0 mg/kg/injection, schedule: Q01DX005 (ip), vehicle: saline with Tween-80 105 % of control | dose: 100.0 mg/kg/injection, schedule: Q01DX005 (ip), vehicle: saline with Tween-80 101 % of control

CCn1c(=O)c2c(NC)snc2n(CC)c1=O
inactive: [7] 97 % of control | [8] 95 % of control | dose: 200.0 mg/kg/injection, schedule: Q01DX009 (ip), vehicle: saline 98 % of control

NC(=O)NC(=O)CCl
inactive: [12] 105 % of control and 94 % of control | [13] 103 % of control and 122 % of control and 94 % of control

C=C1C(C)C2C(Cc3ccccc3)NC(=O)C23C(OC(C)=O)C=CC(C)(O)C(=O)C(C)C/C=C/C3C1O (stereo unspecified)
inactive: dose: 0.62 mg/kg/injection, schedule: Q01DX009 (ip), vehicle: Klucel (hydroxypropylcellulose) (HPC) 107 % of control | dose: 0.63 mg/kg/injection, schedule: Q01DX009 (ip), vehicle: Klucel (hydroxypropylcellulose) (HPC) 107 % of control | dose: 1.25 mg/kg/injection, schedule: Q01DX009 (ip), vehicle: Klucel (hydroxypropylcellulose) (HPC) 107 % of control and 97 % of control | dose: 2.5 mg/kg/injection, schedule: Q01DX009 (ip), vehicle: Klucel (hydroxypropylcellulose) (HPC) 107 % of control and 120 % of control | dose: 5.0 mg/kg/injection, schedule: Q01DX009 (ip), vehicle: Klucel (hydroxypropylcellulose) (HPC) 100 % of control and 103 % of control

c1ccc(NSc2ccccc2)cc1
inactive: [12] 119 % of control | [4] 100 % of control | [13] 103 % of control and 119 % of control | [6] 98 % of control | [14] 101 % of control and 121 % of control | [15] 109 % of control | [16] 106 % of control | dose: 200.0 mg/kg/injection, schedule: Q01DX009 (ip), vehicle: saline with Tween-80 100 % of control

CSc1cccc(NC(=O)Nc2ccccc2C(N)=O)c1
inactive: [13] 94 % of control | [14] 103 % of control | [16] 94 % of control

N#Cc1nc(CC(=O)c2ccc(Cl)cc2Cl)c(CC(=O)c2ccc(Cl)cc2Cl)nc1C#N
inactive: dose: 60.0 mg/kg/injection, schedule: Q01DX005 (ip), vehicle: saline 112 % of control | dose: 120.0 mg/kg/injection, schedule: Q01DX005 (ip), vehicle: saline 106 % of control

CCCCCCCCCCCCCCSCCCCCCCCCCCCCC
inactive: [1] 100 % of control | [2] 99 % of control | [17] 92 % of control | [18] 92 % of control

ClC(Cl)c1nc2ccccc2[nH]1
inactive: dose: 6.25 mg/kg/injection, schedule: Q01DX009 (ip), vehicle: saline 108 % of control | dose: 12.5 mg/kg/injection, schedule: Q01DX009 (ip), vehicle: saline 100 % of control | [5] 108 % of control | [7] 101 % of control

O=C(CC(=O)Nc1ccccc1)Cc1ccccc1
inactive: [13] 102 % of control | [14] 97 % of control | [16] 99 % of control

CCOC(=O)CN1CCCC(C(=O)CC2(O)C3(Cl)C4(Cl)C5(Cl)C(Cl)(Cl)C6(Cl)C4(Cl)C2(Cl)C6(Cl)C53Cl)C1 (stereo unspecified)
inactive: [3] 97 % of control | [4] 98 % of control | [6] 101 % of control | [15] 100 % of control

CN(C)C(=O)Nc1cccc2c(NC(=O)N(C)C)cccc12
inactive: [13] 100 % of control and 103 % of control | [14] 100 % of control (2×) and 93 % of control | [16] 99 % of control and 87 % of control | dose: 400.0 mg/kg/injection, schedule: Q01DX009 (ip), vehicle: Klucel (hydroxypropylcellulose) (HPC) 91 % of control

C=C1CC2(CC(C)CCC2C(=C)C)OC1=O (stereo unspecified)
inactive: dose: 100.0 mg/kg/injection, schedule: Q01DX001 (ip), vehicle: saline 101 % of control | dose: 200.0 mg/kg/injection, schedule: Q01DX001 (ip), vehicle: saline 102 % of control | dose: 400.0 mg/kg/injection, schedule: Q01DX001 (ip), vehicle: saline 99 % of control

CN(C)CCOc1cccc(NC2=C(Cl)C(=O)C(Nc3cccc(OCCN(C)C)c3)=C(Cl)C2=O)c1
inactive: dose: 1.56 mg/kg/injection, schedule: Q01DX005 (ip), vehicle: Klucel (hydroxypropylcellulose) (HPC) 100 % of control and 107 % of control | dose: 3.12 mg/kg/injection, schedule: Q01DX005 (ip), vehicle: Klucel (hydroxypropylcellulose) (HPC) 107 % of control and 96 % of control | dose: 6.25 mg/kg/injection, schedule: Q01DX005 (ip), vehicle: Klucel (hydroxypropylcellulose) (HPC) 104 % of control and 122 % of control and 97 % of control

CNC(=O)N(CCO)/N=C\c1ccc([N+](=O)[O-])o1
inactive: [2] 99 % of control | [17] 97 % of control | [18] 103 % of control
